Among the data in ChEMBL document CHEMBL4622846, “Synthesis and cytotoxic effects of 2-thio-3,4-dihydroquinazoline derivatives as novel T-type calcium channel blockers” (Bioorg Med Chem, 2020) are IC50 and inhibition values, retold here.

What is called IC50 is the concentration at which inhibition is half-maximal. For orientation: inhibition means the change of the read-out against control, counted positive when it falls.

The target in test [1] is T1, Voltage-dependent T-type calcium channel subunit alpha-1I (Homo sapiens, UniProt Q9P0X4). Kind of test: Inhibition of human Cav3.3 expressed in tsA-201 cells by patch clamp electrophysiology. In kind it is cell-based.
For test [2], the target named is T2, Voltage-dependent T-type calcium channel subunit alpha-1H (Homo sapiens, UniProt O95180). Kind of test: Inhibition of human Cav3.2 expressed in tsA-201 cells at 10uM by patch clamp electrophysiology. It is filed as cell-based.
T2 sequence (O95180 whole entry): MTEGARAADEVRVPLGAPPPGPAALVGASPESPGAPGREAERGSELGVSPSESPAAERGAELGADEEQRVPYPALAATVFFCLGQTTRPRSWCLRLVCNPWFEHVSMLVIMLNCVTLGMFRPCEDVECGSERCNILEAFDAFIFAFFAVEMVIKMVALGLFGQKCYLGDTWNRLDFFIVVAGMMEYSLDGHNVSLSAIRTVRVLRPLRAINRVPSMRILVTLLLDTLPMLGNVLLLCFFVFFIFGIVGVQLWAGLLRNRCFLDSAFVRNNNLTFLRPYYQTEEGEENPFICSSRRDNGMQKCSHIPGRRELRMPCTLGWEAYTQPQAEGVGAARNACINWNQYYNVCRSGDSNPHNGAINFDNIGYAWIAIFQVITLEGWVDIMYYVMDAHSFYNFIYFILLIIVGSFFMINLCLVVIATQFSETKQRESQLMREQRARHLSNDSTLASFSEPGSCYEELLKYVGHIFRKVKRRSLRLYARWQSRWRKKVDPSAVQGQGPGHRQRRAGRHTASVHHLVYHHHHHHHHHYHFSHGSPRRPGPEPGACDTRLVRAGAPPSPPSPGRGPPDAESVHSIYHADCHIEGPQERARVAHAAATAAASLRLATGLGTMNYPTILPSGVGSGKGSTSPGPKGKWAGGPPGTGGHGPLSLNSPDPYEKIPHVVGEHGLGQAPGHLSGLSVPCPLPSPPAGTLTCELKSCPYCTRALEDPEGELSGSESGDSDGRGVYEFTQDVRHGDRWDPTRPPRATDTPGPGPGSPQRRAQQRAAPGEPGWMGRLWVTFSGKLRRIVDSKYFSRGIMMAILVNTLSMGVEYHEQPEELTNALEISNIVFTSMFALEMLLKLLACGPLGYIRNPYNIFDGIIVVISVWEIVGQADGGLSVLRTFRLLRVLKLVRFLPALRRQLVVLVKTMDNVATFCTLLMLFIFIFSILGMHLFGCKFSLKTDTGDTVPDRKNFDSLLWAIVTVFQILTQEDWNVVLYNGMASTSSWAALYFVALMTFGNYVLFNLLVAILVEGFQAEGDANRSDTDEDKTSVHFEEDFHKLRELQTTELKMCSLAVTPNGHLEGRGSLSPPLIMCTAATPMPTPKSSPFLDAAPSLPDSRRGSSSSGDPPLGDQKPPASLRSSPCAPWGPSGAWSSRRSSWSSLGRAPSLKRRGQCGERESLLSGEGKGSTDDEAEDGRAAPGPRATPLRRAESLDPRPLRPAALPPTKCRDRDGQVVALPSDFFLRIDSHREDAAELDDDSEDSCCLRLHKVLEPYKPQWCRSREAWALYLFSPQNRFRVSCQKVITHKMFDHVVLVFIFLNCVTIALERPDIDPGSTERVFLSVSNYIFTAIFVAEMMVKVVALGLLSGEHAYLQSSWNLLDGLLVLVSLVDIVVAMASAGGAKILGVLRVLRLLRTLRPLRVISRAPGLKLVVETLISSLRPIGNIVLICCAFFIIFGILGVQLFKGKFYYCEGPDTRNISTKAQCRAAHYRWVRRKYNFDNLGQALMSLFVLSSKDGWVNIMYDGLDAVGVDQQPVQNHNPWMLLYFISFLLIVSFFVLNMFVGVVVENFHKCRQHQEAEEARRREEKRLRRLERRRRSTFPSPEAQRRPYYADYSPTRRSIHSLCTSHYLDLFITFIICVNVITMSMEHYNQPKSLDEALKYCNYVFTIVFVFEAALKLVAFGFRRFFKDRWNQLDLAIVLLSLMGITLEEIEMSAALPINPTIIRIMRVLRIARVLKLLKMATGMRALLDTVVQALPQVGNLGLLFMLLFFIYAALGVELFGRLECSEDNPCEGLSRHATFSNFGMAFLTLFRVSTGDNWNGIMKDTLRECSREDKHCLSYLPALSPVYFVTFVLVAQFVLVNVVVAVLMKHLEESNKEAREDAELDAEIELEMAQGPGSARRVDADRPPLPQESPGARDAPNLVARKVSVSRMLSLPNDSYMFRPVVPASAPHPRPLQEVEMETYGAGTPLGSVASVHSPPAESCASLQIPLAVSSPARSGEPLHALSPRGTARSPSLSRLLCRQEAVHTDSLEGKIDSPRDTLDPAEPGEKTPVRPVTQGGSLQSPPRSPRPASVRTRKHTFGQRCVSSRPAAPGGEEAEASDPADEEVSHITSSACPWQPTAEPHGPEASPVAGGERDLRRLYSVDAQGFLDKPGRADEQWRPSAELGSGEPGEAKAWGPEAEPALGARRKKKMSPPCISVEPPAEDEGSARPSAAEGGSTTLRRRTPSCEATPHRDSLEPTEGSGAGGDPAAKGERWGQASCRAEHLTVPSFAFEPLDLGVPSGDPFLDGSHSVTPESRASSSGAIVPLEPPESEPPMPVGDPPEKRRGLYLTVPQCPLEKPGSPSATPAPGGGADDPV
Test [3] concerns the target T1, Voltage-dependent T-type calcium channel subunit alpha-1I. The test can be described thus: Inhibition of human Cav3.3 expressed in tsA-201 cells at 10uM by patch clamp electrophysiology. In kind it is cell-based.
Test [4] concerns the target T3, Voltage-dependent T-type calcium channel subunit alpha-1G (Homo sapiens, UniProt O43497). Kind of test: Inhibition of human Cav3.1 expressed in tsA-201 cells at 10uM by patch clamp electrophysiology. In kind it is cell-based. On the technique in general: In patch-clamp work, channel activity is measured electrically.
The test system of test [5] is A549. Kind of test: Cytotoxicity against human A549 cells assessed as reduction in cell viability after 48 hrs by MTT assay. It is filed as functional, cell-based. The note with it: A549, 48 h.
Test [6] deals with T3, Voltage-dependent T-type calcium channel subunit alpha-1G. Kind of test: Inhibition of human Cav3.1 expressed in tsA-201 cells by patch clamp electrophysiology. In kind it is cell-based.
Test [7] deals with T2, Voltage-dependent T-type calcium channel subunit alpha-1H. The test can be described thus: Inhibition of human Cav3.2 expressed in tsA-201 cells by patch clamp electrophysiology. In kind it is cell-based.
For test [8], the system named is HCT-116. Kind of test: Cytotoxicity against human HCT116 cells assessed as reduction in cell viability after 48 hrs by MTT assay. It is filed as functional, cell-based. The note with it: HCT-116, 48 h.

Calls of active or inactive are those of the source. The rule behind the calls is not given here.

T3 sequence (O43497 whole entry): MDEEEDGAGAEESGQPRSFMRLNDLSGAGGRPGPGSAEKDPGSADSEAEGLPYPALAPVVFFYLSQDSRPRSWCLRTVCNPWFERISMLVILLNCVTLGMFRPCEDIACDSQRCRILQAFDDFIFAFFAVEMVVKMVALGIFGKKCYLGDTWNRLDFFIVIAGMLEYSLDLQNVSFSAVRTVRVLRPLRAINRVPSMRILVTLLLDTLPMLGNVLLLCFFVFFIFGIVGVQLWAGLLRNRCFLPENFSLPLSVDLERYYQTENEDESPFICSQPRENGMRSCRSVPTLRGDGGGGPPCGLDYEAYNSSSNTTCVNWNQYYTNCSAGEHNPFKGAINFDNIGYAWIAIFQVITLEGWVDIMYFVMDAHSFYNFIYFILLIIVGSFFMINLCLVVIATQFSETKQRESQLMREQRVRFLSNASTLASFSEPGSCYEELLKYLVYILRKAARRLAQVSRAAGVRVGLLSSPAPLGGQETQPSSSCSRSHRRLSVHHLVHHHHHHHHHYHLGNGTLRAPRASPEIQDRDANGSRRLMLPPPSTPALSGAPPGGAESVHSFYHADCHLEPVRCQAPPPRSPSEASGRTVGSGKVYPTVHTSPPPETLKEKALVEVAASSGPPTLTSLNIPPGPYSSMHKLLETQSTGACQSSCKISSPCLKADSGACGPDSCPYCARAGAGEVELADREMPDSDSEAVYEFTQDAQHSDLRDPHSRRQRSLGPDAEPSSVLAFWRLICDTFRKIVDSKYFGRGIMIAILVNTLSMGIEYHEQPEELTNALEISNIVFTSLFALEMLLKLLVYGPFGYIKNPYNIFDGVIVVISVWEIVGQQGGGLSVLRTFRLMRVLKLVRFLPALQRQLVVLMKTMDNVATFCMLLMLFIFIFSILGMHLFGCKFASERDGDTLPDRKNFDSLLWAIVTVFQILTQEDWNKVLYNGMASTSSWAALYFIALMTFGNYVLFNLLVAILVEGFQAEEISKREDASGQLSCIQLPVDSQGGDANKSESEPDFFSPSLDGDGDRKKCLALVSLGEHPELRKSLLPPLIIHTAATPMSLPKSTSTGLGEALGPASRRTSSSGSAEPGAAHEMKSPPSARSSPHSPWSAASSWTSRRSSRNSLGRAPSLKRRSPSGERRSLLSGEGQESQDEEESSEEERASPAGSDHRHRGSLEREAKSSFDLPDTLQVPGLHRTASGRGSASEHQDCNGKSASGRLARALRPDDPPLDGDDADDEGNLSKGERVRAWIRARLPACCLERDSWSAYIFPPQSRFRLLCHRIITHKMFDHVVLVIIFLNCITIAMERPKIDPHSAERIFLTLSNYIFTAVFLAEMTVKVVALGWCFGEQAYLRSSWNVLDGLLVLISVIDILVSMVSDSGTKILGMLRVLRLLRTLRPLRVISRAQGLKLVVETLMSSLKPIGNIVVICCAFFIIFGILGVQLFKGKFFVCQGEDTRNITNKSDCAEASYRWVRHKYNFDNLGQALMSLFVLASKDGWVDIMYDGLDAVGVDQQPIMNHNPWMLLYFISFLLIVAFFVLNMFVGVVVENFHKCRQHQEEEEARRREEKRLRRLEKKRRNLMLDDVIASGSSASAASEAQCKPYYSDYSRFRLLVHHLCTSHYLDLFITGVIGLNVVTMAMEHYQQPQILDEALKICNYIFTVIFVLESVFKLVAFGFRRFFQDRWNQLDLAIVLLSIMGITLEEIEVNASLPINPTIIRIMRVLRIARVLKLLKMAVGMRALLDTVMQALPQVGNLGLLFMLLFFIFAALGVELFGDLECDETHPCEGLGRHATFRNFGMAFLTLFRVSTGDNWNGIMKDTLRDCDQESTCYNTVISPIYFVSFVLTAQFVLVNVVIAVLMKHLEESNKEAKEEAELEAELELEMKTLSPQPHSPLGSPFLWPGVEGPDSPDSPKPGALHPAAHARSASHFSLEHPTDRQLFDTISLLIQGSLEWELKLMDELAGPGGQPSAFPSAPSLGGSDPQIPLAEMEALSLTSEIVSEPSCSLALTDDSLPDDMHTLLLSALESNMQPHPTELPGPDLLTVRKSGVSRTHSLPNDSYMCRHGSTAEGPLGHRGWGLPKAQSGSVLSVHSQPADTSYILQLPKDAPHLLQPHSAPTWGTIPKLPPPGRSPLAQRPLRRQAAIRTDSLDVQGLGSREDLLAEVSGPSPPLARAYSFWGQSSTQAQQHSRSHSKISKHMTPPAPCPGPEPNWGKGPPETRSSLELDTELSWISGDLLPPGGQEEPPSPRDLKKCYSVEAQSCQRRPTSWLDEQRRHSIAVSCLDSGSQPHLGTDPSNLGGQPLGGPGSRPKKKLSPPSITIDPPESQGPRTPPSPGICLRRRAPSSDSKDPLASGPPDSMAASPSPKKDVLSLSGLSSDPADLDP

As for `O=C(CC1c2ccccc2N=C(SCCCCCN2CCCC2)N1c1ccccc1)NCc1ccccc1` (stereo unspecified), the IC50 in test [1] (read-out: IC50) turned out to be 6.19 µM; in test [5], 98.1 µM; in test [6], 77 µM; in test [7], 7.71 µM; in test [8], 31.3 µM. In addition, the results for the inhibition in test [2], in test [3] and in test [4] were 61.6%, 78.3% and 60.4%, respectively.

Take `CN(C)CCCCCSC1=Nc2ccccc2C(CC(=O)NCc2ccc(F)cc2)N1c1ccc(-c2ccccc2)cc1` (stereo unspecified): the IC50 in test [1] (read-out: IC50) was found to be 6.1 µM; in test [5] it was 5 µM; in test [6], 27.4 µM; in test [7], 3.14 µM; in test [8], 6.4 µM. The inhibition turned out to be 83.1% in test [2], 69.3% in test [3] and 31% in test [4].

As to `CN(C)CCCCCN(C)C1=Nc2ccccc2C(CC(=O)NCc2ccccc2)N1c1ccc(-c2ccccc2)cc1` (stereo unspecified), the inhibition in test [2] was 89.3%. In addition, in test [8], the IC50 turned out to be 5.6 µM.

As to `O=C(CC1c2ccccc2N=C(SCCCCCN2CCCC2)N1c1ccc(-c2ccc(F)cc2)cc1)NCc1ccc(F)cc1` (stereo unspecified), the IC50 came to 19.8 µM in test [1] (read-out: IC50); 12.6 µM in test [5]; 12.6 µM in test [6]; 4.88 µM in test [7]; 7.7 µM in test [8]. Besides, the inhibition is 76.6% in test [2], 35.1% in test [3] and 83.9% in test [4].

As for `O=C(CC1c2ccccc2N=C(SCCCCCN2CCCC2)N1c1ccc(-c2ccc(F)cc2)cc1)NCc1ccccc1` (stereo unspecified), the IC50 in test [1] (read-out: IC50) was 5.1 µM; in test [5], 17.8 µM; in test [6] it was 2.18 µM; in test [7] it was 0.26 µM; in test [8], 12.5 µM. The inhibition came to 97.5% in test [2], 68.2% in test [3] and 83.9% in test [4].

In the case of `CN(C)CCCCCSC1=Nc2ccccc2C(CC(=O)NCc2ccc(F)cc2)N1c1ccc(-c2ccc(F)cc2)cc1` (stereo unspecified), the half-inhibitory concentration (IC50) in test [1] (read-out: IC50) worked out at 0.96 µM; in test [5], 11.3 µM; in test [6], 0.4 µM; in test [7] it was 2.76 µM; in test [8], 9.3 µM. The inhibition was 84.8% in test [2], 92% in test [3] and 96.2% in test [4].

For the compound `O=C(CC1c2ccccc2N=C(SCCCCCN2CCCC2)N1c1ccccc1)NCc1ccc(F)cc1` (stereo unspecified), the inhibition in test [2] came out at 40%; in test [3], 22.1%; in test [4], 60.1%. The IC50 came out at 89.9 µM in test [5], 13.5 µM in test [6], 57.4 µM in test [7] and 27.1 µM in test [8].

`CN(C)CCCCCSC1=Nc2ccccc2C(CC(=O)NCc2ccccc2)N1c1ccccc1` (stereo unspecified): the IC50 amounted to 3.2 µM in test [1] (read-out: IC50); 138 µM in test [5]; 18.5 µM in test [6]; 13.8 µM in test [7]; 38.8 µM in test [8]. In addition, the inhibition in test [2] was 51.8%; in test [3], 76%; in test [4] it was 46.5%.

Turning to `CN(C)CCCCCSC1=Nc2ccccc2C(CC(=O)NCc2ccccc2)N1c1ccc(-c2ccc(F)cc2)cc1` (stereo unspecified), the IC50 in test [1] (read-out: IC50) was 9.06 µM; in test [5] it was 17.6 µM; in test [6] it was 0.25 µM; in test [7], 4.18 µM; in test [8], 9.2 µM. Moreover, the results for the inhibition in test [2], in test [3] and in test [4] were 75.6%, 66.7% and 97.6%, respectively.

`CN(C)CCCCCSC1=Nc2ccccc2C(CC(=O)NCc2ccccc2)N1c1ccc(-c2ccccc2)cc1` (stereo unspecified): the IC50 in test [1] (read-out: IC50) came to 1.76 µM; in test [5] it was 18.1 µM; in test [6], 7.77 µM; in test [7], 2.4 µM; in test [8] it was 9.6 µM. Also, the inhibition is 83.9% in test [2], 85.6% in test [3] and 76.2% in test [4].

As for `CN(C)CCCCCSC1=Nc2ccccc2C(CC(=O)NCc2ccc(F)cc2)N1c1ccccc1` (stereo unspecified), the IC50 result is “Not Active” in test [1], 36.8 µM in test [5], 832 µM in test [7] and 38.8 µM in test [8]. In addition, the inhibition in test [2] was 7%; in test [4] it was 26.7%. Further, the inhibition entry in test [3] was “inactive”.

With `O=C(CC1c2ccccc2N=C(SCCCCCN2CCCC2)N1c1ccc(-c2ccccc2)cc1)NCc1ccc(F)cc1` (stereo unspecified), the IC50 worked out at 13.6 µM in test [1] (read-out: IC50); 19.8 µM in test [5]; 15 µM in test [6]; 276 µM in test [7]; 6.2 µM in test [8]. Also, the inhibition is 69% in test [2], 55.9% in test [3] and 51.5% in test [4].

`O=C(CC1c2ccccc2N=C(SCCCCCN2CCCC2)N1c1ccc(-c2ccccc2)cc1)NCc1ccccc1` (stereo unspecified): the IC50 came out at 0.81 µM in test [1] (read-out: IC50); 14.9 µM in test [5]; 0.66 µM in test [6]; 6.9 µM in test [7]; 5.5 µM in test [8]. The results for the inhibition in test [2], in test [3] and in test [4] were 73.1%, 92.7% and 93.9%, respectively.
